We go through one molecule from US20120316065A1, “SURFACTANT BLENDS FOR AUXIN ACTIVITY HERBICIDES” (AKZO NOBEL CHEMICALS INTERNATIONAL B.V., priority 2010, published 2012).

The assay relates to alfalfa (Medicago sativa). Briefly: Greenhouse herbicidal efficacy of 2,4-D amine tank-mixed with adjuvants, post-emergence spray. In kind it is in vivo. Particulars: 2,4-D DMA 0.125 lb/A, adjuvant 0.25% wt (0 for None), scale 0% no damage to 100% complete damage. How it is done: The surfactant blends described in Table 1 were applied by the tank mix method together with 2,4-D amine salt (465 g/l). The application rate per ha was 0.1250 lb 2,4-D amine salt ai/A and 0.25% of surfactant blends according to the invention or 0.25% comparative adjuvant Activator 90 (alkylphenol ethoxylate, alcohol ethoxylate and tall oil fatty acid, (Loveland). The herbicidal effect was assessed in a greenhouse environment after 1, 2, 3, and 4 weeks. The test plant used was alfalfa (Medicago sativa).
The plants were sown directly to the pot. When the active ingredient was applied, the plants were 20-30 cm in height. The test containers used were plastic pots containing potting mixture. The solutions were applied by the tank mix method by spray application post-emergence in an automated spray cabinet with a water application rate of 200 liters per hectare. Evaluation was carried out using a scale of from 0% to 100%. 0% means no damage, 100% means complete damage. The results of the assessment are compiled in tables 2 and which follow.

On to `O=C(O)COc1ccc(Cl)cc1Cl` [2,4-D DMA, 2-(2,4-dichlorophenoxy) acetic acid], for which the “Alfalfa (1WAT) % control” value (1 week after treatment) was 10.0%. In addition, the “Alfalfa (2WAT) % control” value (2 weeks after treatment) was 20.0%. For the same molecule, the “Alfalfa (3WAT) % control” value (3 weeks after treatment) is given as 20.0%. Moreover, the “Alfalfa (4WAT) % control” value (4 weeks after treatment) was found to be 37.5%.
